Some test systems named below: RXF 393 renal; HOP-62 NSCLC; SK-MEL-5 melanoma; MDA-MB-231 breast; MDA-N; HOP-92 NSCLC; SNB-75 CNS; SN12C renal; LOX IMVI melanoma; HCC-2998 colon; SF-295 CNS.
Common to all, as to test: growth of human tumour cells (NCI), 48 h

Where “and” joins values, the source holds several entries; their conditions need not be identical. Identical values can stand only once.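 Protocol summary: plate cells (96-well), add compound at 5 concentrations, incubate 48 h, interpolate endpoints linearly. GI50: concentration for 50% inhibition of growth. TGI marks complete inhibition of growth.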 A value given as a limit tells only on which side of the number the result lay.

Take `CN(C)C1COC2Cc3ccccc3C1O2` (stereo not drawn): the TGI in the test on RXF 393 renal, with HOP-62 NSCLC, in the test on SK-MEL-5 melanoma, in the test with MDA-MB-231 breast, with MDA-N and in the test on HOP-92 NSCLC was above 100 µM each time. Further, the TGI is 83.5 µM and 79.7 µM in the test on SNB-75 CNS; above 100 µM in the test with SN12C renal; above 100 µM with LOX IMVI melanoma; above 100 µM in the test with HCC-2998 colon; above 100 µM in the test on SF-295 CNS. Besides, the GI50 in the test on SNB-75 CNS was 3.16 µM and 11.2 µM.

For the compound `C/C(=C\[C@H]1C[C@@H]([C@@H]2CC[C@]34C[C@]23C=C[C@@H]2[C@@]3(C)CC=C5C[C@@H](c6ccccc6)OC[C@]5(C)[C@@H]3C[C@@H](O)[C@]24C)C(=O)O1)CO`, the TGI in the test with RXF 393 renal was above 100 µM; with HOP-62 NSCLC, above 100 µM; in the test with SK-MEL-5 melanoma it was 2.76 µM; in the test with MDA-MB-231 breast it was 54.4 µM; with MDA-N, 13.2 µM; with HOP-92 NSCLC it was 28.1 µM. For the same compound, the TGI was 92 µM in the test on SNB-75 CNS; 5.57 µM in the test on SN12C renal; above 100 µM in the test on LOX IMVI melanoma; above 26.4 µM in the test with HCC-2998 colon; 15.7 µM in the test with SF-295 CNS.

In the case of `Nc1nc(Cl)cc(NCC2(CO)CC(Cc3ccccc3)C2)n1` (stereo not drawn), the TGI was above 93.5 µM in the test with RXF 393 renal; above 100 µM in the test with HOP-62 NSCLC; above 41.9 µM in the test on SK-MEL-5 melanoma; above 100 µM with MDA-MB-231 breast; above 86.9 µM in the test with MDA-N; above 88.6 µM with HOP-92 NSCLC. Moreover, the TGI is above 100 µM in the test on SNB-75 CNS; above 100 µM in the test on SN12C renal; above 100 µM in the test with LOX IMVI melanoma; above 88.6 µM in the test on HCC-2998 colon; above 100 µM in the test on SF-295 CNS.

As for `CCOC(=O)C(SCCO)C(C(=O)OCC)n1cc(C)c(=O)[nH]c1=O` (stereo not drawn), the TGI with RXF 393 renal was 43.7 µM; with HOP-62 NSCLC it was above 85.6 µM; in the test on SK-MEL-5 melanoma it was above 70.6 µM; with MDA-MB-231 breast it was 48.9 µM; in the test with MDA-N, 64.4 µM; with HOP-92 NSCLC, 71.9 µM. The TGI was above 100 µM in the test with SNB-75 CNS; above 45.8 µM in the test on SN12C renal; 19.2 µM with LOX IMVI melanoma; above 78.9 µM in the test with HCC-2998 colon; above 100 µM in the test on SF-295 CNS.

`Cn1c(=O)c2c(nc3sc4ncccc4c(=O)n32)n(C)c1=O`: the TGI in the test with RXF 393 renal, in the test on HOP-62 NSCLC, with SK-MEL-5 melanoma, with MDA-MB-231 breast, with MDA-N and with HOP-92 NSCLC was above 100 µM throughout. The TGI with SNB-75 CNS, in the test with SN12C renal, with LOX IMVI melanoma, with HCC-2998 colon and with SF-295 CNS was above 100 µM each time.

Turning to `CO/N=C/c1c(-c2ccc(Cl)cc2)c(/C=N/OC)n2c1sc1ccccc12`, the TGI in the test on RXF 393 renal, in the test with HOP-62 NSCLC, with SK-MEL-5 melanoma, with MDA-MB-231 breast, in the test on MDA-N and with HOP-92 NSCLC was above 100 µM throughout. The TGI in the test on SNB-75 CNS, in the test with SN12C renal, in the test on LOX IMVI melanoma, with HCC-2998 colon and in the test with SF-295 CNS was above 100 µM throughout.

As to `O=C1c2cccnc2-c2nccc3ccnc1c23`, the TGI in the test with RXF 393 renal was 2.52 µM; with HOP-62 NSCLC it was 7.95 µM; in the test on SK-MEL-5 melanoma, 1.84 µM; in the test on MDA-MB-231 breast, 6.52 µM; in the test on MDA-N, 0.465 µM; with HOP-92 NSCLC, 2.36 µM. In addition, the TGI in the test on SNB-75 CNS is 5.92 µM; with SN12C renal, 2.36 µM; in the test on LOX IMVI melanoma, 2.22 µM; in the test on HCC-2998 colon, 3.41 µM; with SF-295 CNS, 2.78 µM.

Turning to `CC(=O)OCC(OC(C)=O)C(OC(C)=O)C(OC(C)=O)C(/C=N\Nc1nc2ccccc2c(=O)[nH]1)OC(C)=O` (stereo not drawn), the TGI in the test with RXF 393 renal, in the test with HOP-62 NSCLC, in the test with SK-MEL-5 melanoma, in the test with MDA-MB-231 breast, with MDA-N and with HOP-92 NSCLC was above 100 µM each time. Further, the TGI in the test on SNB-75 CNS, with SN12C renal, in the test on LOX IMVI melanoma, with HCC-2998 colon and in the test on SF-295 CNS was above 100 µM in each case.

In the case of `Cc1ccc2cccc(OC(=O)c3cc4c(cc3Cl)Sc3nccn3S4(=O)=O)c2n1`, the TGI is 20.5 µM in the test with RXF 393 renal; 19.4 µM with HOP-62 NSCLC; 27 µM in the test on SK-MEL-5 melanoma; 29.3 µM in the test on MDA-MB-231 breast; above 96 µM in the test on MDA-N; 68 µM in the test with HOP-92 NSCLC. In addition, the TGI in the test with SNB-75 CNS is 39.6 µM; in the test with SN12C renal, above 100 µM; in the test with LOX IMVI melanoma, 19.8 µM; with HCC-2998 colon it was 13.1 µM; in the test on SF-295 CNS, 29.7 µM.

For the compound `CN(C)CC1CN(C(=O)Nc2ccccc2)C(=N)O1` (stereo not drawn), the TGI in the test with RXF 393 renal, in the test with HOP-62 NSCLC, with SK-MEL-5 melanoma, with MDA-MB-231 breast, in the test on MDA-N and in the test with HOP-92 NSCLC was above 100 µM throughout. Further, the TGI in the test with SNB-75 CNS, with SN12C renal, in the test with LOX IMVI melanoma, in the test with HCC-2998 colon and with SF-295 CNS was above 100 µM in each case.

With `CCOC(=O)C1C(=O)CC(C)(O)C(C(=O)OCC)C1c1ccc(OC)cc1` (stereo not drawn), the TGI with RXF 393 renal, with HOP-62 NSCLC, with SK-MEL-5 melanoma, in the test with MDA-MB-231 breast, in the test with MDA-N and in the test with HOP-92 NSCLC was above 100 µM in each case. Moreover, the TGI in the test with SNB-75 CNS, in the test with SN12C renal, with LOX IMVI melanoma, with HCC-2998 colon and in the test on SF-295 CNS was above 100 µM in each case.

As for `Cc1c(C)c2ccc(O)cc2[nH]c1=O`, the TGI in the test with RXF 393 renal, with HOP-62 NSCLC, in the test with SK-MEL-5 melanoma, in the test on MDA-MB-231 breast, with MDA-N and in the test with HOP-92 NSCLC was above 100 µM each time. Also, the TGI in the test on SNB-75 CNS, in the test with SN12C renal, in the test on LOX IMVI melanoma, in the test with HCC-2998 colon and with SF-295 CNS was above 100 µM in each case.

(Values after PubChem BioAssay (NCI).)
